According to BigSolDB 2.1:

CS(=O)(=O)c1ccc([C@@H](O)[C@@H](CO)NC(=O)C(Cl)Cl)cc1
solubility (mole fraction)
Conditions | 278.15 K | 283.15 K | 288.15 K | 293.15 K | 298.15 K | 303.15 K | 308.15 K | 313.15 K | 318.15 K
in 1,4-dioxane | – | – | 0.000384 | 0.000508 | 0.000728 | 0.000973 | 0.0013 | 0.00173 | 0.00227
in 2-butanone | 0.000139 | 0.000197 | 0.000286 | 0.000379 | 0.00051 | 0.000704 | 0.000952 | 0.00125 | 0.00166
in DMF | 0.0092 | 0.012 | 0.0156 | 0.0199 | 0.025 | 0.0308 | 0.0379 | 0.0457 | 0.0553
in acetone | 0.000283 | 0.000425 | 0.000585 | 0.00084 | 0.00112 | 0.00149 | 0.00202 | 0.00268 | 0.00352
in acetonitrile | 7.96e-05 | 0.000119 | 0.000177 | 0.000259 | 0.000363 | 0.000502 | 0.000716 | 0.00098 | 0.00134
in ethanol | 0.000102 | 0.000148 | 0.000219 | 0.000309 | – | 0.000625 | 0.000837 | 0.00115 | 0.00157
in ethyl acetate | 6.24e-05 | 9.09e-05 | 0.000124 | 0.000171 | 0.000246 | 0.000348 | 0.000471 | 0.000643 | 0.000861
in isopropanol | 3.46e-05 | 5.2e-05 | 7.13e-05 | 0.000104 | 0.000146 | 0.000201 | 0.000269 | 0.000364 | 0.000493
in methanol | 0.00023 | 0.000345 | 0.000518 | 0.000715 | 0.000993 | 0.00141 | 0.00189 | 0.00259 | 0.00341
in n-butanol | 9.54e-06 | 1.38e-05 | 2.08e-05 | 3.1e-05 | 4.46e-05 | 6.39e-05 | 8.42e-05 | 0.000123 | 0.000165
in n-propanol | 5.11e-05 | 7.34e-05 | 0.000103 | 0.000147 | 0.000199 | 0.000285 | 0.00038 | 0.000509 | 0.000687
in toluene | 3.96e-06 | 6.03e-06 | 8.89e-06 | 1.28e-05 | 1.89e-05 | 2.7e-05 | 3.81e-05 | 5.53e-05 | 7.6e-05
in water | 2.5e-05 | 3.42e-05 | 4.96e-05 | 7.3e-05 | 9.52e-05 | 0.000132 | 0.000187 | 0.000253 | 0.000339
